In patent EP0558245A1, “Heterobicyclic compounds as antagogists of alpha-1 adrenergic and SHT1A receptors” (priority 1992, dated 1993):
Where a name gives a salt, the structure may show the parent alone. Read-outs that look alike come from different tables or passages of the source.

How the values were obtained:
5HT1A receptors = biological target: T1, 5HT1A receptors (Rattus norvegicus, UniProt P19327); assay: [3H]8-OH-DPAT binding (5HT1A receptors), rat hippocampus membranes; details: rat hippocampus crude membranes, [3H]8-OH-DPAT 1.0 nM, 25°C 30 min; read-out: Receptor Binding IC50 (nM) 5-HT1a
T1 construct: Rat hippocampi were homogenized; from tissue; host or cells: rat hippocampus membranes
T1 sequence (P19327 1-422): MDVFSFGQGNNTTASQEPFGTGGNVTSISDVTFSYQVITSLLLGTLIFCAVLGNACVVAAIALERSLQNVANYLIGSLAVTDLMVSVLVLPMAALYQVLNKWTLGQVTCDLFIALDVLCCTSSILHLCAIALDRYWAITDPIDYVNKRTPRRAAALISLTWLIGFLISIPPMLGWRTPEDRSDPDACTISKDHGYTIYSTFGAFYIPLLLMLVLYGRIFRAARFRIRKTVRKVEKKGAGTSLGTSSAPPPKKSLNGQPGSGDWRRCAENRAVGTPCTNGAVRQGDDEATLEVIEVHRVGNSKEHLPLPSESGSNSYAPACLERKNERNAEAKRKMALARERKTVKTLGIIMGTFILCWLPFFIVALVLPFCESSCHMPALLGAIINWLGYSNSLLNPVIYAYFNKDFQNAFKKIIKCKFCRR
Description: Rat hippocampi were homogenized in 50 volumes of original wet weight of ice-cold 50 mM Tris-HCl buffer pH 7.4. The homogenates were centrifuged at 48,000 x g for 10 minutes, and the pellets were resuspended in the same volume of ice-cold buffer, incubated for 10 minutes at 37°C, centrifuged and resuspended two more times. The final pellets obtained were resuspended in the same volume of buffer and incubated according to the conditions reported in the table below.
(§1) The incubations were terminated after the appropriate time (see table) by rapid filtration through Whatman GF/B filters using a Brandel cell harvester. The filters were washed twice with 15 ml of ice-cold buffer (see table). The radioactivity retained on the filters was determined by liquid scintillation counting. Nonspecific binding (which amounted generally to 10-30%) was evaluated by adding high concentrations of the specific displacers (see table). All the compounds were initially tested at 1x10⁻⁶ M concentration, and in the presence of significant displacing activity, a complete competition curve was generated (down to a concentration of 10⁻¹¹ M). All the samples were run in triplicate.
The competition curves were always analyzed (to evaluate the IC₅₀ values) by non linear curve fitting of the logistic equation according to the method reported by De Lean et al. (Am. J. Physiol., 235, E97, 1978), utilizing the ALLFIT program [publically available from the National Institutes of Health (N.I.H.) Bethesda, Maryland, USA] written for the IBM PC.

α₁ receptors = assay: [3H]prazosin binding (α1 receptors), rat cerebral cortex membranes; details: rat cerebral cortex crude membranes, [3H]prazosin 0.35 nM, 25°C 30 min; read-out: Receptor Binding IC50 (nM) α1
Description: Rat cerebral cortices were homogenized in 50 volumes of original wet weight of ice-cold 50 mM Tris-HCl buffer pH 7.4. The homogenates were centrifuged at 48,000 x g for 10 minutes, and the pellets were resuspended in the same volume of ice-cold buffer, centrifuged and resuspended two more times. The final pellets obtained were resuspended in the same volume of buffer and incubated according to the conditions reported in the table below.
as §1

[1] = Acute toxicity in mice after intraperitoneal and oral administration; details: mouse, in vivo, female albino Swiss mice, mortality recorded 7 days after administration
Description: Male Sprague Dawley rats [Crl: CD' BR] of 200-300 g b.w., female Albino Swiss mice [Crl: CD-1 (ICR) BR] 20-30 g b.w., and male Beagle dogs (10-12 kg b.w.) were obtained from Charles River, Italy and Nossan (Correzzana, Milan, Italy), respectively. Animals were housed with free access to food and water and maintained on forced light-dark cycle at 22-24°C until the day of experiments.
The acute toxicity of synthesized compounds was evaluated in female albino Swiss mice after intraperitoneal and oral administration. Four logarithmic scaled doses of the compounds were dissolved or suspended in 0.5% Methocel and administered in a volume of 10 ml/kg to groups of 4 mice/dose. Mortality was recorded 7 days after the administration. Data analysis: the LD₅₀ values and their fiducial limits were calculated according to the method of Weil (Biometrics, 8, 249, 1952).

[2] = ip, intraperitoneal, read-out: Acute Toxicity in Mice LD50 (mg/kg) i.p.
[3] = oral, read-out: Acute Toxicity in Mice LD50 (mg/kg) p.o.

Compound | IC50 (5HT1A receptors) | IC50 (α₁ receptors) | LD50 at 168 h [1, 2] | LD50 at 168 h [1, 3]
COc1ccccc1N1CCN(CCC(=O)c2cccc3c(=O)c(C)c(-c4ccccc4)oc23)CC1.Cl [Example 4, 8-{3-[4-(2-methoxyphenyl)-1-piperazinyl]-1-oxopropyl}-3-methyl-4-oxo-2-phenyl-4H-1-benzopyran hydrochloride] | 55 nM | 550 nM | 346 mg/kg | 1730 mg/kg
COc1ccccc1N1CCN(CCOC(=O)c2cccc3c(=O)c(C)c(-c4ccccc4)oc23)CC1.Cl.Cl [Example 6, 8-{2-[4-(2-methoxyphenyl)-1-piperazinyl]-ethoxycarbonyl}-3-methyl-4-oxo-2-phenyl-4H-1-benzopyran dihydrochloride] | 1000 nM | 107 nM | 233 mg/kg | –
Cc1c(-c2ccccc2)oc2c(C(=O)OCCCN3CCN(c4ccccc4Cl)CC3)cccc2c1=O.Cl.Cl [Example 7, 8-{3-[4-(2-chlorophenyl)-1-piperazinyl]-propoxycarbonyl}-3-methyl-4-oxo-2-phenyl-4H-1-benzopyran dihydrochloride] | 155 nM | 86 nM | 384 mg/kg | 1920 mg/kg
Cc1c(-c2ccccc2)oc2c(C(=O)OCCCN3CCN(c4ccccc4)CC3)cccc2c1=O.Cl.Cl [Example 8, 8-[3-(4-phenyl-1-piperazinyl)-propoxycarbonyl]-3-methyl-4-oxo-2-phenyl-4H-1-benzopyran dihydrochloride] | 111 nM | 66 nM | > 500 mg/kg | 1920 mg/kg
COc1ccccc1OCCNCCCNC(=O)c1cccc2c(=O)c(C)c(-c3ccccc3)oc12.Cl [Example 14, 8-{3-[2-(2-methoxyphenoxy)-ethylamino]-propylcarbamoyl}-3-methyl-4-oxo-2-phenyl-4H-1-benzopyran hydrochloride] | 6 nM | 61 nM | 140 mg/kg | 559 mg/kg
Cc1c(-c2ccccc2)oc2c(C(=O)NCCCN3CCN(c4ccccc4)CC3)cccc2c1=O [Example 15, 8-[3-(4-phenyl-1-piperazinyl)-propylcarbamoyl]-3-methyl-4-oxo-2-phenyl-4H-1-benzopyran monohydrochloride hemihydrate] | 131 nM | 8 nM | 306 mg/kg | 496 mg/kg
Cc1ccccc1N1CCN(CC(O)c2cccc3c(=O)c(C)c(-c4ccccc4)oc23)CC1.Cl (stereo not shown) [Example 18, 8-{1-hydroxy-2-[4-(2-methylphenyl)-1-piperazinyl]-ethyl}-3-methyl-4-oxo-2-phenyl-4H-1-benzopyran hydrochloride] | > 1000 nM | 270 nM | 457 mg/kg | 3000 mg/kg
CCOc1ccccc1N1CCN(CC(O)c2cccc3c(=O)c(C)c(-c4ccccc4)oc23)CC1.Cl (stereo not shown) [Example 19, 8-{1-Hydroxy-2-[4-(2-ethoxyphenyl)-1-piperazinyl]-ethyl}-3-methyl-4-oxo-2-phenyl-4H-1-benzopyran hydrochloride] | 340 nM | 165 nM | > 1000 mg/kg | > 3000 mg/kg
CCOC(CN1CCN(c2ccccc2OC)CC1)c1cccc2c(=O)c(C)c(-c3ccccc3)oc12.Cl (stereo not shown) [Example 22, 8-{1-ethoxy-2-[4-(2-methoxyphenyl)-1-piperazinyl]-ethyl}-3-methyl-4-oxo-2-phenyl-4H-1-benzopyran hydrochloride] | 48 nM | 117 nM | > 500 mg/kg | > 2000 mg/kg
COc1ccccc1N1CCN(CCN(Cc2cccc3c(=O)c(C)c(-c4ccccc4)oc23)C(C)=O)CC1.Cl [Example 24, 8-{N-acetyl-2-[4-(2-methoxyphenyl)-1-piperazinyl]-ethylaminomethyl}-3-methyl-4-oxo-2-phenyl-4H-1-benzopyran hydrochloride] | 212 nM | 690 nM | > 1000 mg/kg | > 3000 mg/kg
COc1ccccc1N1CCN(CC(=O)N(C)Cc2cccc3c(=O)c(C)c(-c4ccccc4)oc23)CC1 [Example 26, 8-{N-methyl-N-[4-(2-methoxyphenyl)-1-piperazinyl]-acetamidomethyl}-3-methyl-4-oxo-2-phenyl-4H-1-benzopyran hydrochloride hydrate] | > 1000 nM | 270 nM | > 500 mg/kg | > 2000 mg/kg
CCOc1ccccc1OCCNCCOCc1cccc2c(=O)c(C)c(-c3ccccc3)oc12.Cl [Example 28, 8-{2-[2-(2-ethoxyphenoxy)-ethylamino]-ethoxymethyl}-3-methyl-4-oxo-2-phenyl-4H-1-benzopyran hydrochloride] | 96 nM | 120 nM | 203 mg/kg | 1130 mg/kg
COc1ccccc1N1CCN(CCCN(C)c2cccc3c(=O)c(C)c(-c4ccccc4)oc23)CC1 [Example 35, 8-{N-methyl-3-[4-(2-methoxyphenyl)-1-piperazinyl]-propylamino}-3-methyl-4-oxo-2-phenyl-4H-1-benzopyran hydrochloride hemihydrate] | 8 nM | 15 nM | 329 mg/kg | 959 mg/kg
COc1ccccc1N1CCN(CCCN(C(C)=O)c2cccc3c(=O)c(C)c(-c4ccccc4)oc23)CC1.Cl.O [Example 36, 8-{N-acetyl-3-[4-(2-methoxyphenyl)-1-piperazinyl]-propylamino}-3-methyl-4-oxo-2-phenyl-4H-1-benzopyran hydrochloride hydrate] | 54 nM | 18 nM | > 500 mg/kg | > 2000 mg/kg
COc1ccccc1N1CCN(CCC(=O)Nc2cccc3c(=O)c(C)c(-c4ccccc4)oc23)CC1.Cl [Example 37, 8-{3-[4-(2-methoxyphenyl)-1-piperazinyl]-propionamido}-3-methyl-4-oxo-2-phenyl-4H-1-benzopyran hydrochloride] | 77 nM | 32 nM | > 500 mg/kg | > 2000 mg/kg
COc1ccccc1N1CCN(CCNC(=O)Nc2cccc3c(=O)c(C)c(-c4ccccc4)oc23)CC1.CS(=O)(=O)O [Example 38, 8-{2-[4-(2-methoxyphenyl)-1-piperazinyl]-ethylureido}-3-methyl-4-oxo-2-phenyl-4H-1-benzopyran methanesulphonate] | 344 nM | 20 nM | > 500 mg/kg | > 2000 mg/kg
COc1ccccc1N1CCN(CCOc2cccc3c(=O)c(C)c(-c4ccccc4)oc23)CC1.Cl.O [Example 39, 8-{2-[4-(2-methoxyphenyl)-1-piperazinyl]-ethoxy}-3-methyl-4-oxo-2-phenyl-4H-1-benzopyran hydrochloride hydrate] | 170 nM | 90 nM | > 1000 mg/kg | > 3000 mg/kg
COc1ccccc1N1CCN(CCNS(=O)(=O)c2cccc3c(=O)c(C)c(-c4ccccc4)oc23)CC1.Cl [Example 48, 8-{2-[4-(2-methoxyphenyl)-1-piperazinyl]-ethylsulphamoyl}-3-methyl-4-oxo-2-phenyl-4H-1-benzopyran hydrochloride] | 5 nM | 104 nM | 500 mg/kg | 1910 mg/kg
COc1ccccc1N1CCN(CCCNC(=O)c2cccc3c(=O)c(C)c(C4CCCCC4)oc23)CC1 [Example 104, 8-{3-[4-(2-methoxyphenyl)-1-piperazinyl]-propylcarbamoyl}-2-cyclohexyl-3-methyl-4-oxo-4H-1-benzopyran] | 15 nM | 9 nM | – | –
COc1ccccc1N1CCN(CCCNC(=O)c2cccc3c(=O)cc(-c4ccccc4)sc23)CC1 [Example 107, 8-{3-[4-(2-methoxyphenyl)-1-piperazinyl]-propylcarbamoyl}-4-oxo-2-phenyl-4H-1-benzothiopyran] | 16 nM | 37 nM | – | –
COc1ccc(-c2oc3c(C(=O)NCCCN4CCN(c5ccccc5OC)CC4)cccc3c(=O)c2C)cc1 [Example 110, 8-{3-[4-(2-methoxyphenyl)-1-piperazinyl]-propylcarbamoyl}-2-(4-methoxyphenyl)-3-methyl-4-oxo-4H-1-benzopyran] | 15 nM | 26 nM | – | –
COc1ccccc1N1CCN(CCCC(=O)c2cccc3c(=O)c(C)c(-c4ccccc4)oc23)CC1.CS(=O)(=O)O [methanesulphonate] | 84 nM | 22 nM | – | –
